Results published in patent US9295629B2, “WNT family-derived peptides and use thereof” (CAREGEN CO., LTD., priority 2011, dated 2016).
Where no end group is shown, it is not given here.

How the values were obtained:
HaCaT keratinocytes = assay: SRB colorimetric cell growth assay, keratinocytes; type: cell-based; conditions: 72 hr; for growth of keratinocytes, microscope image: observed under a microscope (FIG. 3a); for effect on the growth of keratinocytes: peptide 1 ng/ml-10 μg/ml, SRB absorbance at 590 nm (FIG. 2a)
Procedure: (§1) In order to evaluate three peptides prepared in Preparation Examples 1-2 whether they have similar activities of growth factor, SRB (Sulforhodamine B; Sigma-Aldrich) colorimetric assay was carried out using HaCaT kerationcytes (Korean Cell Line Bank) and NIH3T3 fibroblasts (Korean Cell Line Bank) according to Rizzino et al. method (Rizzino, et al. Cancer Res., 48: 4266 (1988)).
(§2) HaCaT ketatinocytes, NIH3T3 fibroblasts, and HHFDPC hair follicle cells (cell science) were cultured in 250 ml-flasks containing DMEM (Dulbecco's Modified Eagle's minimal essential media; Gibco, USA) supplemented with 10% FBS (fetal bovine serum; Sigma). Cells cultured were treated with 1% trypsin solution to detach cells from the bottom of culture flasks and centrifuged to collect cell pellets. After cells were resuspended in DMEM not containing FBS, its aliquot (3×10^3 cells) was added to each well of 96-well plates and cultured under 5% CO2 for 24 hr at 37° C. After 24-hr culture, the medium was changed with a fresh medium without serum and cells were incubated with empty sample (for normalization) and peptides synthesized (1 ng/ml, 10 ng/ml, 100 ng/ml, 1 μg/ml and 10 μg/ml) aseptically dissolved in 10% DMSO for 72 hr under the same conditions as described above. After removing supernatants, cells were fixed with ethanol and then washed three times using PBS (phosphate buffered saline), followed by incubation with SRB solution. Cells were sufficiently washed with 1% acetic acid and observed under a microscope to find living cell condition. In addition, absorbance at 590 nm was measured to analyze cell viability. Meanwhile, after culturing under the same conditions, the tissue was immunostained by an immunohistochemical assay with ki-67 antibody (SantaCruz, USA) and the amount of ki-67 protein as a cell proliferation marker was observed.

NIH3T3 fibroblasts = assay: SRB colorimetric cell growth assay, fibroblasts; type: cell-based; conditions: for growth of fibroblasts, microscope image: NIH3T3, 72 hr, observed under a microscope (FIG. 3b); for effect on the growth of fibroblasts: NIH3T3, peptide 1 ng/ml-10 μg/ml, 72 hr, SRB absorbance at 590 nm (FIG. 2b)
Procedure: as §1, §2

[1] = tested on: HHFDPC hair follicle cells; assay: SRB colorimetric cell growth assay, hair follicle cells; type: cell-based; conditions: 72 hr; for growth of cells in hair follicles, microscope image: observed under a microscope (FIG. 3c); for effect on the growth of cells in hair follicles: peptide 1 ng/ml-10 μg/ml, SRB absorbance at 590 nm (FIG. 2c)
Procedure: as §2

LRP5 = assay: Western blot of Phospho-LRP5 in HaCaT keratinocytes; type: cell-based; conditions: peptide 5 hr, Western blot (FIG. 4)
Procedure: (§3) HaCaT kerationcytes cultured for 48 hr were incubated with the peptides synthesized in preparation Example 1 for 5 hr. The phosphorylation level of LRP5, which is the receptor of WNT protein and expression level of β-catenin, which is the signal molecule of WNT protein were examined respectively. The amount of Phopho-LRP5 and β-catenin were measured by Western blot analysis using an antibody against Phopho-LRP5 (Cell signaling) and β-catenin (SantaCruz, USA). In addition, the expression level of LEF-1 transcription factor was also observed, which is enhanced by β-catenin. […] First of all, it was shown that β-catenin activity is observed by treatment with the peptide of the present invention in spite of the presence of DKK-1 as a WNT inhibitor and a β-catenin signaling inhibitor (FIG. 5b). It was also observed that the expression level of LEF-1 transcription factor was increased by the treatment of the present peptides (FIG. 6).

β-catenin = assay: Western blot of β-catenin in HaCaT keratinocytes; type: cell-based; conditions: for expression level / activity of β-catenin: peptide 5 hr, Western blot (FIG. 5a); for β-catenin expression / activity in the presence of DKK-1: with DKK-1 (WNT inhibitor), Western blot (FIG. 5b)
Procedure: as §3

fibronectin = assay: Fibronectin ELISA in NIH3T3 fibroblasts; type: cell-based; conditions: for fibronectin expression with the lapse of time: NIH3T3, peptide 1 μg/ml, 3, 10, 24 or 48 hr, ELISA (FIG. 7a); for fibronectin expression in the presence of DKK-1: NIH3T3, treated with both DKK-1 protein and peptide, ELISA (FIG. 7b)
Procedure: To verify whether the peptides synthesized in preparation Example 1 enhances the expression of fibronectin as a WNT target protein, NIH3T3 fibroblasts (4×10^3 cells) was added to each well of 96-well plates and cultured under 5% CO2 for 24 hr at 37° C. After 24-hr culture, the medium was changed with a fresh medium without serum and cells were treated with empty sample (for normalization), three peptides synthesized (1 μg/ml) and peptide complex (1 μg/ml) aseptically dissolved in 10% DMSO for 3 hr, 10 hr, 24 hr or 48 hr under the same conditions as described above. After 72 hr incubation, the cell culture was collected and the expression level of fibronectin was measured using Fibronectin ELISA kit (R&D systems, USA).
In addition, after DKK-1 protein was treated and cultured under the same conditions, the expression level of fibronectin was examined.

C57BL/6 mouse back skin = assay: Mouse hair growth, topical peptide nanosome; type: in vivo; conditions: nanosome topically twice every day for 15 days (FIG. 8)
Procedure: The peptide synthesized in Preparation Example 1 was formulated into nanosome. Afterwards, the back of C57BL/6 mouse was partially removed and then the skin was topically administered with the nanosome twice every day for 15 days.
50 mg of each peptide synthesized in preparation Examples was dissolved in 500 ml of distilled water by sufficient agitation. The peptide solution was mixed with 5 g lecithin, 0.3 ml sodium oleate, 50 ml ethanol and a small amount of oils, and its volume was adjusted with distilled water to 1 L. The resulting solution was subjected to a microfluidizer under high pressure for emulsification, thereby providing nanosomes having about 100-nm size. The nanosomes were prepared to have a final concentration of about 50 ppm and used as ingredients for cosmetics.

Row | Substance | growth of keratinocytes, microscope image (HaCaT keratinocytes) | effect on the growth of keratinocytes (HaCaT keratinocytes) | growth of fibroblasts, microscope image (NIH3T3 fibroblasts) | effect on the growth of fibroblasts (NIH3T3 fibroblasts) | growth of cells in hair follicles, microscope image [1] | effect on the growth of cells in hair follicles [1] | phosphorylation level of LRP5 (LRP5) | expression level / activity of β-catenin (β-catenin) | β-catenin expression / activity in the presence of DKK-1 (β-catenin) | fibronectin expression with the lapse of time (fibronectin) | fibronectin expression in the presence of DKK-1 (fibronectin) | hair growth on mouse back skin (C57BL/6 mouse back skin)
1 | LCCGRGHRTRTQR (cysteine pairing not given here) [peptide-1] | promote the growth | stimulatory effect | promote the growth | stimulatory effect | promote the growth | stimulatory effect | enhancement | enhancement | β-catenin expression in spite of the presence of DKK-1 | gradually elevated | restored and enhanced | activity for promoting hair growth
2 | peptide-2: WNT-derived peptide, amino acid sequence LCCGRGHNAR (WNT-derived peptide 2) | promote the growth | stimulatory effect | promote the growth | stimulatory effect | promote the growth | stimulatory effect | enhancement | enhancement | β-catenin expression in spite of the presence of DKK-1 | gradually elevated | restored and enhanced | activity for promoting hair growth
3 | peptide-3: WNT-derived peptide, amino acid sequence AERRRELCRC (WNT-derived peptide 3) | promote the growth | stimulatory effect | promote the growth | stimulatory effect | promote the growth | stimulatory effect | enhancement | enhancement | β-catenin expression in spite of the presence of DKK-1 | gradually elevated | restored and enhanced | activity for promoting hair growth
4 | peptide-4: WNT-derived peptide, amino acid sequence LCCGRGHNVL (WNT-derived peptide 4) | promote the growth | stimulatory effect | promote the growth | stimulatory effect | promote the growth | stimulatory effect | enhancement | enhancement | β-catenin expression in spite of the presence of DKK-1 | gradually elevated | restored and enhanced | activity for promoting hair growth
